Tests used:
Format in all cases: in vivo
[1] = tested on: Clostridium cluster IV and XIVa; test: Intestinal colonization of Clostridia in GF mice, qPCR of fecal DNA; conditions: metabolite in drinking water of GF mice gavaged with Clostridia consortium; FIG. 4D, 9C
S. Typhimurium ΔspiA = S. Typhimurium ΔspiA oral infection of mice: pathogen loads, cecal histology, survival
Method: (§1) Reconstitution of GF mice with cecal contents and defined bacteria. Cecal contents from single neonatal and 7-week old SPF mice were diluted into 50 ml (per one adult mouse) or 5 ml (per one 4, 12, 16-day old mouse) of PBS, and passed through a 70 μm cell strainer to eliminate clumps and debris under sterile conditions) under an atmosphere of 5% H2, 5% CO2 and 90% N2 in an anaerobic growth chamber (Coy Manufacturing, Grass Lake, MI). Then 200 μl of the suspension was processed by intragastric gavage into each of the recipient GF mice. Bacteroides species were anaerobically grown at 37° C. overnight in pre-reduced chopped-meat broth (Anaerobe systems, Morgan Hill, CA). E. coli were grown aerobically overnight in LB broth with shaking.
(§2) Enteric pathogen infection. Kanamycin (Km)-resistant and Streptomycin (Sm)-resistant Salmonella enterica serovar Typhimurium (S. Typhimurium) SL1344 ΔspiA was a gift from Dr. Denise Monack, Stanford University. Kanamycin (Km)-resistant wild-type Citrobacter rodentium strain DBS120 (pCRP1::Tn5) was a gift from Dr. David Schauer, Massachusetts Institute of Technology. […] Mice were infected by oral gavage with 0.2 ml of PBS containing approximately 5×10^7 CFU of S. Typhimurium, and 1×10^9 CFU of C. rodentium. […] Mouse survival was monitored for 7 days after infection. […]

C. rodentium = C. rodentium oral infection of mice: pathogen loads in feces; conditions: adult mice, vancomycin in drinking water; day 25-30 after infection; FIG. 2B
Method: as §1, §2

fecal microbiota = test: 16S rRNA gene analysis of the fecal microbiota; conditions: adult mice; FIG. 7, FIG. 2D
Method: Fecal pellet DNA extraction and 16S rRNA gene sequencing and sequence curation. Fecal samples were freshly collected and DNA was extracted using the E.Z.N.A® stool DNA kit. Amplicons were generated of the V4 region within the 16S rRNA gene and the fragments were sequenced using an Illumina MiSeq (14). These sequences were curated using Mothur (v.1.35) (14, 15) and sequences were binned into operational taxonomic units (OTUs). Taxonomic assignments were determined using a naive Bayesian classifier with the Ribosomal Database Project (RDP) training set (version 10) requiring an 80% bootstrap confidence score (16). Treatment with vancomycin and SCFAs and special diet. Vancomycin (250 mg/L) was administered in the mouse drinking water for 7 days before S. Typhimurium and C. rodentium infection and the treatment was kept during the length of the experiment.

In the case of `CC(=O)O` [acetate], the “enhanced colonization of Clostridia of IV and XIVa clusters” value (shortened to “enhanced colonization”) [1] is reported as “not”.
With `CC(O)C(=O)O` (stereo not shown) [lactate] the “enhanced colonization” value [1] was “not”.
In the case of `O=C(O)CCC(=O)O` [succinate], the “reduction of intestinal loads of S. Typhimurium ΔspiA” value (S. Typhimurium ΔspiA; GF mice given succinate in drinking water and Clostridia consortium by gavage, FIG. 4E, F) is reported as roughly 100 fold and the “enhanced colonization” value [1] is reported as 4 to 5 logs.
`CN[C@H](CC(C)C)C(=O)N[C@H]1C(=O)N[C@@H](CC(N)=O)C(=O)N[C@H]2C(=O)N[C@H]3C(=O)N[C@H](C(=O)N[C@H](C(=O)O)c4cc(O)cc(O)c4-c4cc3ccc4O)[C@H](O)c3ccc(c(Cl)c3)Oc3cc2cc(c3O[C@@H]2O[C@H](CO)[C@@H](O)[C@H](O)[C@H]2O[C@H]2C[C@](C)(N)[C@H](O)[C@H](C)O2)Oc2ccc(cc2Cl)[C@H]1O` [vancomycin] was tested, and the “increase of S. Typhimurium colonization in fecal and cecal contents” value (S. Typhimurium ΔspiA; adult mice, vancomycin in drinking water, day 1 after infection, FIG. 2C) was 4 to 5 logs, the “higher C. rodentium pathogen loads in the feces vs untreated mice” value (C. rodentium) was roughly 6 logs and the “change of fecal microbiota composition” value (fecal microbiota) was “depleted the microbiota of Clostridiales and Bacteroidales and increased the abundance of Enterobacteriaceae and Lactobacillaceae”.
